Data published in patent US20160297851A1, “BROAD SPECTRUM […]” (priority 2012, published 2016).
Converted amounts (≈) assume the structure as drawn. “Also recorded” adds a separate entry of the source. Where two headings read alike, the source gives them in different places.

Legend:
[1] = test system: lepB(P84L) E. coli MG1655; assay: microbe, parasite or virus in culture; type: cell-based, Escherichia coli; conditions: for minimal inhibitory concentration (MIC): Table 3, P3 position derivatives, unit not given
[2] = test system: Brevibacillus brevis ATCC 8246; assay: microbe, parasite or virus in culture; type: cell-based; conditions: ATCC8246
[3] = test system: Streptococcus pneumoniae R800; assay: microbe, parasite or virus in culture; type: cell-based; conditions: Streptococcus pneumoniae, R800; read-out: MIC
[4] = test system: wild type S. epidermidis RP62A; assay: microbe, parasite or virus in culture; type: cell-based, Staphylococcus epidermidis; conditions: for MIC: Sensitive strain (SPase without the resistance-conferring Pro); for minimal inhibitory concentration (MIC): Table 3, P3 position derivatives, unit not given
[5] = test system: Rhodococcus equi ATCC 6939; assay: microbe, parasite or virus in culture; type: cell-based; conditions: Rhodococcus (subgen. Prescottella) equi, ATCC6939
[6] = test system: Lactococcus lactis; assay: microbe, parasite or virus in culture; type: cell-based; conditions: Lactococcus lactis, several values = different isolates/subspecies; read-out: MIC
[7] = test system: wild type E. coli MG1655; assay: microbe, parasite or virus in culture; type: cell-based, Escherichia coli
[8] = test system: Corynebacterium efficiens DSM 44549; assay: microbe, parasite or virus in culture; type: cell-based; conditions: Corynebacterium efficiens, DSM44549; read-out: MIC
[9] = test system: lepB(P84L) P. aeruginosa PAO1; assay: microbe, parasite or virus in culture; type: cell-based, Pseudomonas aeruginosa; conditions: for minimal inhibitory concentration (MIC): Table 3, P3 position derivatives, unit not given
[10] = test system: Streptococcus pyogenes M1-5448; assay: microbe, parasite or virus in culture; type: cell-based; conditions: Streptococcus pyogenes, M15448; read-out: MIC
[11] = test system: lepB(P29S) S. aureus 8325; assay: microbe, parasite or virus in culture; type: cell-based, Staphylococcus aureus; conditions: for MIC: Sensitive (genetically sensitized) strain; for minimal inhibitory concentration (MIC): Table 3, P3 position derivatives, unit not given
[12] = test system: Rhodococcus opacus DSM 1069; assay: microbe, parasite or virus in culture; type: cell-based; conditions: Rhodococcus opacus, DSM1069; read-out: MIC
[13] = test system: Streptococcus agalactiae COH-1; assay: microbe, parasite or virus in culture; type: cell-based
[14] = test system: Corynebacterium glutamicum DSM 44475; assay: microbe, parasite or virus in culture; type: cell-based; conditions: DSM44475
[15] = test system: spsB(S29P) S. epidermidis RP62A; assay: microbe, parasite or virus in culture; type: cell-based, Staphylococcus epidermidis
[16] = test system: wild type S. aureus 8325; assay: microbe, parasite or virus in culture; type: cell-based, Staphylococcus aureus
[17] = test system: wild type P. aeruginosa PAO1; assay: microbe, parasite or virus in culture; type: cell-based, Pseudomonas aeruginosa
[18] = test system: Gram-negative strains (E. coli, P. aeruginosa); assay: MIC panel; type: cell-based; conditions: for activity in words: wild type or mutant Gram-negative strains
[19] = test system: S. epidermidis, S. aureus, E. coli, and P. aeruginosa; assay: MIC panel; type: cell-based; conditions: all bacteria / organisms tested
[20] = test system: Gram-positive bacteria (S. epidermidis, S. aureus); assay: MIC panel; type: cell-based
[21] = test system: S. epidermidis ATCC 35984; assay: MIC of selected compounds; type: cell-based; conditions: Table 1
[22] = Escherichia coli, MG1655, Sensitive (genetically sensitized) strain, read-out: MIC
[23] = Staphylococcus epidermidis, read-out: MIC
[24] = Escherichia coli, MG1655, Resistant strain (wild type), read-out: MIC
[25] = Pseudomonas aeruginosa, PAO1, Sensitive (genetically sensitized) strain, read-out: MIC
[26] = Staphylococcus aureus, read-out: MIC
[27] = Staphylococcus aureus, Resistant strain (wild type), read-out: MIC
[28] = Pseudomonas aeruginosa, PAO1, Resistant strain (wild type), read-out: MIC
[29] = Sensitive (genetically sensitized) strain

Row | Compound | MIC [1, 22] | MIC [4, 23] | MIC [7, 24] | MIC [9, 25] | MIC [11, 26] | MIC [15, 23] | MIC [16, 27] | MIC [17, 28] | further results
1 | CCCCCCCCCCCCCCCC(=O)N(C)[C@H](CO)C(=O)N[C@H](C)C(=O)NCC(=O)N(C)[C@@H]1C(=O)N[C@@H](C)C(=O)N[C@H](C(=O)O)Cc2cc(c(O)c([N+](=O)[O-])c2)-c2cc1ccc2O [Arylomycin B-C16, arylomycin B-C16] | 2 µg/mL | 0.13 µg/mL (≈ 0.14 µM) | > 64 µg/mL | 4 µg/mL | 8 µg/mL |  |  |  | activity in words [1]: has activity; MIC [2]: > 64 µg/mL; MIC [3]: 16 µg/mL (≈ 17.3 µM); activity in words [4]: potent activity; MIC [5]: 32 µg/mL (≈ 34.6 µM); MIC [6]: 32 µg/mL (≈ 34.6 µM); activity in words [7]: no activity; MIC [8]: 16 µg/mL (≈ 17.3 µM); activity in words [9]: has activity; MIC [10]: 4 µg/mL (≈ 4.32 µM); activity in words [11]: has activity; MIC [12]: 4 µg/mL (≈ 4.32 µM); fold more activity than arylomycin C16 [13]: greater than 16 fold; MIC ([13]; Streptococcus agalactiae, COH1): 8 µg/mL (≈ 8.64 µM); MIC [14]: 2 µg/mL (≈ 2.16 µM)
2 | C[C@@H]1NC(=O)[C@@H](N(C)C(=O)CNC(=O)[C@@H](C)NC(=O)[C@@H](CO)N(C)C(=O)c2ccc(-c3ccccc3)cc2)c2ccc(O)c(c2)-c2cc(ccc2O)C[C@@H](C(=O)O)NC1=O [Compound 8] | > 64 µg/mL | 32 µg/mL (≈ 38.9 µM) | > 64 µg/mL | > 64 µg/mL | > 64 µg/mL | > 64 µg/mL | > 64 µg/mL | > 64 µg/mL | activity in words [4]: retains some activity
3 | CCc1ccc(-c2ccc(C(=O)N(C)[C@H](CO)C(=O)N[C@H](C)C(=O)NCC(=O)N(C)[C@@H]3C(=O)N[C@@H](C)C(=O)N[C@H](C(=O)O)Cc4ccc(O)c(c4)-c4cc3ccc4O)cc2)cc1 [Compound 9] |  |  | > 64 µg/mL | > 64 µg/mL | > 64 µg/mL | > 64 µg/mL | > 64 µg/mL | > 64 µg/mL | MIC [1, 29]: >64 µg/mL; MIC [4]: 64 µg/mL (≈ 75.2 µM)
4 | CCc1ccc(-c2ccc(C(=O)N(C)[C@H](CO)C(=O)N[C@H](C)C(=O)NCC(=O)N(C)[C@@H]3C(=O)N[C@@H](C)C(=O)N[C@H](C(=O)O)Cc4ccc(O)c(c4)-c4cc3ccc4O)cc2)cc1 [Compound 10] |  |  |  |  |  |  |  |  | MIC [1, 29]: 16 µg/mL; MIC [4]: 8 µg/mL (≈ 9.4 µM); MIC ([7]; Resistant strain (wild type)): >64 µg/mL; MIC [15]: >64 µg/mL; MIC [9, 29]: >64 µg/mL; MIC [11]: 64 µg/mL; MIC ([16]; Resistant strain (wild type)): >64 µg/mL; MIC ([17]; Resistant strain (wild type)): >64 µg/mL
5 | CCCCCCCCc1ccc(-c2ccc(C(=O)N(C)[C@H](CO)C(=O)N[C@H](C)C(=O)NCC(=O)N(C)[C@@H]3C(=O)N[C@@H](C)C(=O)N[C@H](C(=O)O)Cc4ccc(O)c(c4)-c4cc3ccc4O)cc2)cc1 [Compound 12] | 1 µg/mL | 0.5 µg/mL (≈ 0.535 µM) | > 64 µg/mL | > 64 µg/mL | 8 µg/mL | 32 µg/mL (≈ 34.2 µM) | 64 µg/mL | > 64 µg/mL | activity in words [15]: active
6 | CCCCCCc1ccc(C(=O)N(C)[C@H](CO)C(=O)N[C@H](C)C(=O)NCC(=O)N(C)[C@@H]2C(=O)N[C@@H](C)C(=O)N[C@H](C(=O)O)Cc3ccc(O)c(c3)-c3cc2ccc3O)cc1 [Compound 13] | 1 µg/mL | 1 µg/mL (≈ 1.2 µM) | > 64 µg/mL | > 64 µg/mL | 8 µg/mL | 16 µg/mL (≈ 19.3 µM) | 16 µg/mL | > 64 µg/mL | 
7 | CCCCCCCCc1ccc(C(=O)N(C)[C@H](CO)C(=O)N[C@H](C)C(=O)NCC(=O)N(C)[C@@H]2C(=O)N[C@@H](C)C(=O)N[C@H](C(=O)O)Cc3ccc(O)c(c3)-c3cc2ccc3O)cc1 [Compound 14] | 32 µg/mL | 8 µg/mL (≈ 9.31 µM) | > 64 µg/mL | > 64 µg/mL | 64 µg/mL | > 64 µg/mL | > 64 µg/mL | > 64 µg/mL | 
8 | CCCCCCCCCCc1ccc(C(=O)N(C)[C@H](CO)C(=O)N[C@H](C)C(=O)NCC(=O)N(C)[C@@H]2C(=O)N[C@@H](C)C(=O)N[C@H](C(=O)O)Cc3ccc(O)c(c3)-c3cc2ccc3O)cc1 [Compound 15] | 8 µg/mL | 1 µg/mL (≈ 1.13 µM) | > 64 µg/mL | 64 µg/mL | 8 µg/mL | > 64 µg/mL | > 64 µg/mL | > 64 µg/mL | activity in words [16]: has activity; also recorded: gains activity
9 | CCCCCCCCCCCCCCCC(=O)N(C)[C@H](CO)C(=O)N(C)[C@H](C)C(=O)NCC(=O)N(C)[C@@H]1C(=O)N[C@@H](C)C(=O)N[C@H](C(=O)O)Cc2ccc(O)c(c2)-c2cc1ccc2O [Compound 18] | > 64 µg/mL | > 64 µg/mL | > 64 µg/mL | > 64 µg/mL | > 64 µg/mL | > 64 µg/mL | > 64 µg/mL | > 64 µg/mL | activity in words [15]: retained full activity; activity in words [18]: complete loss of activity
10 | CCCCCCCCCCCCCCCC(=O)N1CC(O)C[C@@H]1C(=O)N[C@H](C)C(=O)NCC(=O)N(C)[C@@H]1C(=O)N[C@@H](C)C(=O)N[C@H](C(=O)O)Cc2ccc(O)c(c2)-c2cc1ccc2O (stereo partly drawn) [Compound 19] | > 64 µg/mL | 4 µg/mL (≈ 4.48 µM) | > 64 µg/mL | > 64 µg/mL | 4 µg/mL | 8 µg/mL (≈ 8.96 µM) | > 64 µg/mL | > 64 µg/mL | 
11 | CCCCCCCCCCCCCCCC(=O)N(C)[C@H](CO)CC(=O)N[C@H](C)C(=O)NCC(=O)N(C)[C@@H]1C(=O)N[C@@H](C)C(=O)N[C@H](C(=O)O)Cc2ccc(O)c(c2)-c2cc1ccc2O [Compound 23] | > 64 µg/mL | 4 µg/mL (≈ 4.47 µM) | > 64 µg/mL | > 64 µg/mL | 16 µg/mL | 8 µg/mL (≈ 8.94 µM) | 64 µg/mL | > 64 µg/mL | activity in words [16]: gain activity
12 | CCCCCCCCCCCCCCCC(=O)N(C)[C@H](CO)CCC(=O)N[C@H](C)C(=O)NCC(=O)N(C)[C@@H]1C(=O)N[C@@H](C)C(=O)N[C@H](C(=O)O)Cc2ccc(O)c(c2)-c2cc1ccc2O [Compound 24] | > 64 µg/mL | 8 µg/mL (≈ 8.8 µM) | > 64 µg/mL | > 64 µg/mL | 4 µg/mL | 16 µg/mL (≈ 17.6 µM) | 16 µg/mL | > 64 µg/mL | 
13 | CCCCCCCCCCCCCCCC(=O)N(C)[C@H](CO)C(=O)N[C@H](C)C(=O)NCC(=O)N(C)[C@@H]1C(=O)N[C@@H](C)C(=O)N[C@H](C(=O)O)Cc2ccc(O)c(c2)-c2cc1ccc2O [Compound 25] |  | 32 µg/mL (≈ 36.3 µM) |  |  | 64 µg/mL |  |  |  | activity in words [18]: no activity
14 | CCCCCCCCCCCCCCCC(=O)N(C)[C@H](CO)C(=O)N[C@H](C)C(=O)NCC(=O)N(C)[C@@H]1C(=O)N[C@@H](CCCO)C(=O)N[C@H](C(=O)O)Cc2ccc(O)c(c2)-c2cc1ccc2O [Compound 31] |  |  |  |  |  |  |  |  | minimal inhibitory concentration (MIC) [1]: >64; minimal inhibitory concentration (MIC) [4]: >64; activity in words [19]: All activity was lost; minimal inhibitory concentration (MIC) [9]: >64; minimal inhibitory concentration (MIC) [11]: >64
15 | CCCCCCCCCCCCCCCC(=O)N(C)[C@H](CO)C(=O)N[C@H](C)C(=O)NCC(=O)N(C)[C@@H]1C(=O)N[C@@H](CCCCO)C(=O)N[C@H](C(=O)O)Cc2ccc(O)c(c2)-c2cc1ccc2O [Compound 32] |  |  |  |  |  |  |  |  | minimal inhibitory concentration (MIC) [1]: >64; minimal inhibitory concentration (MIC) [4]: >64; activity in words [19]: All activity was lost; minimal inhibitory concentration (MIC) [9]: >64; minimal inhibitory concentration (MIC) [11]: >64
16 | CCCCCCCCCCCCCCCC(=O)N(C)[C@H](CO)C(=O)N[C@H](C)C(=O)NCC(=O)N(C)[C@@H]1C(=O)N[C@@H](C)C(=O)N[C@H](C(=O)O)Cc2cc(N)c(O)c(c2)-c2cc1ccc2O [Compound 36] |  | 8 µg/mL (≈ 8.93 µM) | > 64 µg/mL |  |  |  |  |  | MIC [2]: > 64 µg/mL; fold loss of activity relative to the parent compounds [20]: 32 fold; fold loss of activity relative to the parent compounds ([18]; Gram-negative pathogens): 8 fold
17 | arylomycin A2 [reference compound] |  |  |  |  |  |  |  |  | MIC [21]: 1 µM; MIC ([7]; Table 1, E. coli MG1655): >128 µM; MIC ([16]; Table 1, S. aureus 8325): >128 µM
